Measurements taken from patent US20240109917A1 (ACTELION PHARMACEUTICALS LTD, priority 2020, published 2024).

Each compound was assayed against PDGFRβ (Rattus norvegicus (Rat), UniProt Q05030) (assay: PDGFRβ Cellular Assay (PDGFRb P-Y751 HTRF in A10 cells stimulated with PDGF-BB)). Conditions: PDGFR Cellular IC50.
Format: cell-based
Outline: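 Phospho-Y751 PDGFRβ was measured by HTRF in lysates of A10 rat cells. Cells received compound for 3 hours before PDGF-BB stimulation (100 ng/mL working stock).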

Sequence of PDGFRβ (Q05030 32-1097): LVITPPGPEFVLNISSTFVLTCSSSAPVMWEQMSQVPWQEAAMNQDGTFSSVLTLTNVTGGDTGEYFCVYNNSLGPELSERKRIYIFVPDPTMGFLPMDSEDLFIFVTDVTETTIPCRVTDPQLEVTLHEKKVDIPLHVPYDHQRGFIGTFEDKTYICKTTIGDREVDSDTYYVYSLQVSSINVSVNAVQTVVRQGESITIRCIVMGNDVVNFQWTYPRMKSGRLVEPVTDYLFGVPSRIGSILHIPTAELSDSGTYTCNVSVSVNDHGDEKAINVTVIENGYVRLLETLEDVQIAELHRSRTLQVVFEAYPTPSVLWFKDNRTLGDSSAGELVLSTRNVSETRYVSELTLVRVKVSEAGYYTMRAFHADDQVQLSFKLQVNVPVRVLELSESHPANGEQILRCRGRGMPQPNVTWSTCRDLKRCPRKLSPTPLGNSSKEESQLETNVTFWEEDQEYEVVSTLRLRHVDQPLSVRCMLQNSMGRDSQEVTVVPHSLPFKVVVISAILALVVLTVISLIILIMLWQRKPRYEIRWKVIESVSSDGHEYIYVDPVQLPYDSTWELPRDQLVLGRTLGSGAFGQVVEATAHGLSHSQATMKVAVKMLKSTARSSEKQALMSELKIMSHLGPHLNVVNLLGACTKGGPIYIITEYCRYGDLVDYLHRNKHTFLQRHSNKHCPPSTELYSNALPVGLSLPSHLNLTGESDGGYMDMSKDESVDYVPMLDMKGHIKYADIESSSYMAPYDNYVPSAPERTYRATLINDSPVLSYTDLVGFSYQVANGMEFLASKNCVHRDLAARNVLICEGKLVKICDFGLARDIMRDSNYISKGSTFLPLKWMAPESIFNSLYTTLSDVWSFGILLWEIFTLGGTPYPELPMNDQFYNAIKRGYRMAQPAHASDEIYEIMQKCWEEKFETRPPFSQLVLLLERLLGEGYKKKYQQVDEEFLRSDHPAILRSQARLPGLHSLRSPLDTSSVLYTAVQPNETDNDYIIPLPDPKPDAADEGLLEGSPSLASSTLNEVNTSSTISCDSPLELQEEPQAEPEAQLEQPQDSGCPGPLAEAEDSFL

| SMILES | IC50 |
| --- | --- |
| Cc1ncc(C(=O)NC2CN(C(C)(C)C)C2)cc1NC(=O)c1cnn2cc(-c3cnn(C)c3)sc12 [Example 237, N-(5-((1-(tert-butyl)azetidin-3-yl)carbamoyl)-2-methylpyridin-3-yl)-2-(1-methyl-1H-pyrazol-4-yl)pyrazolo[5,1-b]thiazole-7-carboxamide] | 619 nM |
| Cc1ncc(NC(=O)OC[C@@H]2CCCN2C)cc1NC(=O)c1cnn2cc(-c3cnn(C)c3)sc12 [Example 243, (S)-(1-methylpyrrolidin-2-yl)methyl (6-methyl-5-(2-(1-methyl-1H-pyrazol-4-yl)pyrazolo[5,1-b]thiazole-7-carboxamido)pyridin-3-yl)carbamate] | 20.3 nM |
| Cc1ncc(NC(=O)OC[C@H]2CCCN2C)cc1NC(=O)c1cnn2cc(-c3cnn(C)c3)sc12 [Example 244, (R)-(1-methylpyrrolidin-2-yl)methyl (6-methyl-5-(2-(1-methyl-1H-pyrazol-4-yl)pyrazolo[5,1-b]thiazole-7-carboxamido)pyridin-3-yl)carbamate] | 22.9 nM |

Same assay, conditions: read-out: PDGFR Cellular IC50

| SMILES | IC50 |
| --- | --- |
| Cc1ncc(C(=O)NCCN2CCCC2(C)C)cc1NC(=O)c1cnn2cc(-c3cncc(S(C)(=O)=O)c3)sc12 [Example 230, N-(5-((2-(2,2-dimethylpyrrolidin-1-yl)ethyl)carbamoyl)-2-methylpyridin-3-yl)-2-(5-(methylsulfonyl)pyridin-3-yl)pyrazolo[5,1-b]thiazole-7-carboxamide] | 791 nM |
| Cc1ncc(C(=O)NCCN2CCCC2(C)C)cc1NC(=O)c1cnn2cc(-c3c(C)n[nH]c3C)sc12 [Example 231, 2-(3,5-Dimethyl-1H-pyrazol-4-yl)-N-(5-((2-(2,2-dimethylpyrrolidin-1-yl)ethyl)carbamoyl)-2-methylpyridin-3-yl)pyrazolo[5,1-b]thiazole-7-carboxamide] | 73.1 nM |
| Cc1ncc(NC(=O)CN2CCN(C)CC2)cc1NC(=O)c1cnn2cc(-c3cnn(C)c3)sc12 [Example 232, 2-(1-methyl-1H-pyrazol-4-yl)-N-(2-methyl-5-(2-(4-methylpiperazin-1-yl)acetamido)pyridin-3-yl)pyrazolo[5,1-b]thiazole-7-carboxamide] | 1730 nM |
| COc1ncccc1-c1cn2ncc(C(=O)Nc3cc(NC(=O)CN4CCCC4(C)C)cnc3C)c2s1 [Example 233, N-(5-(2-(2,2-dimethylpyrrolidin-1-yl)acetamido)-2-methylpyridin-3-yl)-2-(2-methoxypyridin-3-yl)pyrazolo[5,1-b]thiazole-7-carboxamide] | 1.3 nM |
| Cc1ncc(C(=O)NCCNCCO)cc1NC(=O)c1cnn2cc(-c3cnn(C)c3)sc12 [Example 234, N-(5-((2-((2-hydroxyethyl)amino)ethyl)carbamoyl)-2-methylpyridin-3-yl)-2-(1-methyl-1H-pyrazol-4-yl)pyrazolo[5,1-b]thiazole-7-carboxamide] | > 3000 nM |
| Cc1ncc(C(=O)NCCN(CCO)CC2CCCCC2)cc1NC(=O)c1cnn2cc(-c3cnn(C)c3)sc12 [Example 235, N-(5-((2-((cyclohexylmethyl)(2-hydroxyethyl)amino)ethyl)carbamoyl)-2-methylpyridin-3-yl)-2-(1-methyl-1H-pyrazol-4-yl)pyrazolo[5,1-b]thiazole-7-carboxamide] | 9.5 nM |
| Cc1ncc(C(=O)NC[C@H]2CCCN2CCO)cc1NC(=O)c1cnn2cc(-c3cnn(C)c3)sc12 [Example 236, (R)—N-(5-(((1-(2-hydroxyethyl)pyrrolidin-2-yl)methyl)carbamoyl)-2-methylpyridin-3-yl)-2-(1-methyl-1H-pyrazol-4-yl)pyrazolo[5,1-b]thiazole-7-carboxamide] | 677 nM |
| Cc1ncc(C(=O)NC2CN(C(C)(C)C)C2)cc1NC(=O)c1cnn2cc(-c3cccc4c3cnn4C)sc12 [Example 238, N-(5-((1-(tert-butyl)azetidin-3-yl)carbamoyl)-2-methylpyridin-3-yl)-2-(1-methyl-1H-indazol-4-yl)pyrazolo[5,1-b]thiazole-7-carboxamide] | 181 nM |
| Cc1ncc(C(=O)N2CC2CNC(C)(C)C)cc1NC(=O)c1cnn2cc(-c3cccc4c3cnn4C)sc12 (stereo not drawn) [Example 239, N-(5-(2-((tert-butylamino)methyl)aziridine-1-carbonyl)-2-methylpyridin-3-yl)-2-(1-methyl-1H-indazol-4-yl)pyrazolo[5,1-b]thiazole-7-carboxamide] | 349 nM |
| Cc1ncc(C(=O)NCCN2CCCC2(C)C)cc1NC(=O)c1cnn2cc(-c3cccc4c3cnn4C)sc12 [Example 240, N-(5-((2-(2,2-dimethylpyrrolidin-1-yl)ethyl)carbamoyl)-2-methylpyridin-3-yl)-2-(1-methyl-1H-indazol-4-yl)pyrazolo[5,1-b]thiazole-7-carboxamide] | 11.8 nM |
| Cc1ncc(NC(=O)CCN2CCCC2(C)C)cc1NC(=O)c1cnn2cc(-c3cccc4c3cnn4C)sc12 [Example 241, N-(5-(3-(2,2-dimethylpyrrolidin-1-yl)propanamido)-2-methylpyridin-3-yl)-2-(1-methyl-1H-indazol-4-yl)pyrazolo[5,1-b]thiazole-7-carboxamide] | 2.7 nM |
| COc1ncccc1-c1cn2ncc(C(=O)Nc3cc(C(=O)NCCN4CCC[C@H]4C)cnc3C)c2s1 [Example 242, (R)-2-(2-methoxypyridin-3-yl)-N-(2-methyl-5-((2-(2-methylpyrrolidin-1-yl)ethyl)carbamoyl)pyridin-3-yl)pyrazolo[5,1-b]thiazole-7-carboxamide] | 6.1 nM |
| Cc1ncc(NC(=O)OC[C@@H]2CCCN2C(C)C)cc1NC(=O)c1cnn2cc(-c3cnn(C)c3)sc12 [Example 245, (S)-(1-isopropylpyrrolidin-2-yl)methyl (6-methyl-5-(2-(1-methyl-1H-pyrazol-4-yl)pyrazolo[5,1-b]thiazole-7-carboxamido)pyridin-3-yl)carbamate] | 18.1 nM |
| Cc1ncc(NC(=O)OCCN2CCCC2)cc1NC(=O)c1cnn2cc(-c3cnn(C)c3)sc12 [Example 246, 2-(pyrrolidin-1-yl)ethyl (6-methyl-5-(2-(1-methyl-1H-pyrazol-4-yl)pyrazolo[5,1-b]thiazole-7-carboxamido)pyridin-3-yl)carbamate] | 113 nM |
| Cc1ncc(NC(=O)OCCN2CCCC2(C)C)cc1NC(=O)c1cnn2cc(-c3cnn(C)c3)sc12 [Example 247, 2-(2,2-dimethylpyrrolidin-1-yl)ethyl (6-methyl-5-(2-(1-methyl-1H-pyrazol-4-yl)pyrazolo[5,1-b]thiazole-7-carboxamido)pyridin-3-yl)carbamate] | 18.3 nM |
| Cc1ncc(NC(=O)OCC(C)N2CCCC2)cc1NC(=O)c1cnn2cc(-c3cnn(C)c3)sc12 (stereo not drawn) [Example 248, 2-(pyrrolidin-1-yl)propyl (6-methyl-5-(2-(1-methyl-1H-pyrazol-4-yl)pyrazolo[5,1-b]thiazole-7-carboxamido)pyridin-3-yl)carbamate] | 31.3 nM |
| Cc1ncc(NC(=O)OCC(C)(C)N2CCCC2)cc1NC(=O)c1cnn2cc(-c3cnn(C)c3)sc12 [Example 249, 2-methyl-2-(pyrrolidin-1-yl)propyl (6-methyl-5-(2-(1-methyl-1H-pyrazol-4-yl)pyrazolo[5,1-b]thiazole-7-carboxamido)pyridin-3-yl)carbamate] | 59.8 nM |
| Cc1ncc(NC(=O)OCCN2CC3CCC2C3)cc1NC(=O)c1cnn2cc(-c3cnn(C)c3)sc12 (stereo not drawn) [Example 250, 2-(2-azabicyclo[2.2.1]heptan-2-yl)ethyl (6-methyl-5-(2-(1-methyl-1H-pyrazol-4-yl)pyrazolo[5,1-b]thiazole-7-carboxamido)pyridin-3-yl)carbamate] | 299 nM |
